In publication PMC10663846 (The Journal of Biological Chemistry, 2023):
Peptide text beside a SMILES is read from it.

What was measured:
[1] = human serum diluted 1:4 in RPMI 1640, 37 °C, peptide 10 μg/ml from DMSO stock, 48 h time course, ESI-MS peak area normalized to Angiotensin I
Description: Human serum was diluted 1:4 in Gibco RPMI 1640 media (ThermoFisher Scientific, Cat. No. 11–875–093) and incubated at 37 °C for 15 min before peptide stock was added at final concentration of 10 μg/ml. Time points were taken at room temperature and mixed with 200 μl of 3% TFA before a 15 min incubation on ice. Samples were centrifuged at 16,000g for 2.5 min and the supernatant was prepared for C18 desalting by adding 100 μl of 20% acetonitrile, 2% TFA before storage at −20 °C overnight. Samples were processed through Pierce C18 spin columns (ThermoFisher Scientific, Cat. No. 89870) according to the manufacturer’s instructions. Desalted samples were dried under nitrogen and stored at −20 °C until mass spectrometry analysis.
For MALDI-TOF-MS analysis, samples were reconstituted in 200 μl of 0.1% formic acid. Samples were diluted 1:10 in a MALDI matrix containing a 50 fmol/μl solution of Angiotensin I as a control, spotted onto the plate at a volume of 1 μl, and run on an Axima Performance MALDI TOF/TOF mass spectrometer (Shimadzu Scientific Instruments). Data was visualized with Axima Launchpad 2.8 software (Shimadzu Scientific Instruments). For ESI-MS analysis, samples were run on an Orbitrap Exploris 480 (ThermoFisher Scientific). […] ThermoFisher’s Xcalibur 4.0 Data System was used for peptide quantification via peak area (normalized based on Angiotensin I abundance).

[2] = test system: OVCAR8 cells and human PBMCs co-culture, TNFα secretion; test: OVCAR8:PBMC co-culture, secreted TNFα (ELISA); format: cell-based; conditions: 1:10 OVCAR8:PBMC, 24 h, MN1.4 500, 100 or 10 μM, rPD-L1 1 μM
Description: The concentration of PBMCs required for a 1:10 OVCAR8:PBMC ratio was calculated from the OVCAR8 concentration.

Compound: CC[C@H](C)[C@H](NC(=O)[C@H](CCSC)NC(=O)[C@H](CS)NC(=O)[C@H](CCCNC(=N)N)NC(=O)[C@H](Cc1ccc(O)cc1)NC(C)=O)C(=O)N[C@@H](CO)C(=O)N[C@@H](Cc1ccc(O)cc1)C(=O)NCC(=O)NCC(=O)N[C@@H](C)C(=O)N[C@@H](CC(=O)O)C(=O)N[C@@H](Cc1ccc(O)cc1)C(=O)N[C@@H](CCCCN)C(=O)N[C@@H](CCCNC(=N)N)C(=O)N[C@H](C(=O)N[C@H](C(=O)N[C@H](C(N)=O)C(C)C)[C@@H](C)O)[C@@H](C)CC
- serum modification products (MALDI-TOF-MS): 119 Da

Compound: CC[C@H](C)[C@@H]1NC(=O)[C@H](CCSC)NC(=O)[C@H](C)NC(=O)[C@H](CCCNC(=N)N)NC(=O)[C@@H](NC(C)=O)CSSC[C@@H](C(N)=O)NC(=O)[C@H]([C@@H](C)O)NC(=O)[C@H]([C@@H](C)CC)NC(=O)[C@H](CCCNC(=N)N)NC(=O)[C@H](CCCCN)NC(=O)[C@H](Cc2ccc(O)cc2)NC(=O)[C@H](CC(=O)O)NC(=O)[C@H](C)NC(=O)CNC(=O)CNC(=O)[C@H](Cc2ccc(O)cc2)NC(=O)[C@H](CO)NC1=O [MN1.2] (HELM PEPTIDE1{[ac].C.R.A.M.I.S.Y.G.G.A.D.Y.K.R.I.T.C.[am]}$PEPTIDE1,PEPTIDE1,2:R3-18:R3$$$V2.0)
- serum stability, degradation after 48 h [1]: detected at very low levels

Compound: Ac-YRCMISYGGADEKRITV-NH2 [MN_Null]
- TNFα levels compared to untreated co-culture control [2]: less immunosuppressive activity as compared to MN1.4
